In patent US8101750B2, “Process for the manufacturing of the compound 2-hydroxy-3-[5-(morpholin-4-ylmethyl)pyridin-2-yl]1H-indole-5-carbonitrile 701” (AstraZeneca AB, priority 2007, dated 2012):

In the case of `Cc1ccc(CN2CCOCC2)cn1`, the melting point is reported as 51 to 52 °C.
